Columns and labels:
cortical cell cultures = experiment: in vitro assay of NAALADase inhibitors on ischemia in cortical cell cultures; assay type: cell-based; details: concentration required to cause a 50% reduction in glutamate toxicity following an ischemic insult (potassium cyanide and 2-deoxyglucose)
From the text: Some results are set forth in U.S. Pat. Nos. 5,672,592, 5,795,877, 5,863,536, 5,880,112 and 5,902,817, allowed U.S. patent application Ser. Nos. 08/825,997, 08/833,628, 08/842,360 and 08/899,319 for which the issue fees have been paid, the entire contents of which patents and applications are herein incorporated by reference. Other results are provided below in TABLE III.

[1] = test system: acetic acid (0.6%) induced writhing; experiment: acetic acid model of pain (writhing); assay type: in vivo, mice; details: pretreated
From the text: One source of neuronal glutamate is thought to derive from the abundant neuropeptide NAAG which is hydrolyzed by NAALADase to liberate free glutamate. The inventors hypothesized that inhibition of NAALADase could limit pain by preventing this source of glutamate. To test this hypothesis, the inventors examined the possible antinocipetive effects of several NAALADase inhibitors in the formalin-, acetic acid- and chronic constrictive injury (CCI; “Bennett model”) models of pain. […] On day 7, 5% formalin was injected into the dorsum of the rat's hindpaw.

BB/W diabetic rats = experiment: progression of neuropathic pain in BB/W diabetic rats, thermal nociception; assay type: in vivo, Male BB/W rats; details: 10 mg/kg i.p. daily; starting after 4 weeks, through six months
From the text: Male BB/W rats (BR1, Mass) spontaneously develop a cell mediated autoimmune destruction of pancreatic B cells, resulting in onset of insulin-dependent (Type I) diabetes (Guberski 1994). […] This renders them valuable for experimental trials of new compounds for future treatments of this major disorder. In the present study, Compound 1 and Compound 2 were examined for their ability to alter the progression of diabetic neuropathy. The rats received daily injection of Compound 1 or Compound 2 (10 mg/kg i.p.) or vehicle, starting at the onset of diabetes (hyperglycemia) and up to 6 months thereafter. Another group of non-diabetic rats also receiving vehicle were tested. All animals were continuously monitored for body weight, urine volume, blood sugar and glycated haemoglobin. In the first month of the study, all animals were tested for thermal nociception in a Hargreaves apparatus, weekly. After the first month this was done biweekly and then monthly. The testing consists of directing an infrared heat source onto the […] surface of the rat hindpaw and noting the time taken for the animal to remove its paw (for detailed method see Hargreaves et al. 1998). Each animal was tested 8 times and the mean withdrawal latency noted.

STZ-diabetic animals = experiment: motor and sensory nerve conduction velocity in STZ-diabetic animals; assay type: in vivo, rats; details: either dose (10 mg/kg or 1 mg/kg); significant after 12 weeks at 10 mg/kg, earlier at 1 mg/kg
Method: Male Sprague-Dawley rats (200-225 g) were rendered diabetic by intravenous administration of streptozotocin (STZ, 70 mg/kg in phosphate buffered saline). Diabetic animals were divided into five groups: one group receiving Compound 2 (10 mg/kg or 1 mg/kg), Compound 1 (10 mg/kg or 1 mg/kg) or vehicle. Another group of animals (non-STZ treated) served as non-diabetic controls. Drug/vehicle treatment was started in diabetic animals 45 days post-STZ administration. STZ-induced diabetic rats were tested for sensitivity to a heat source as soon as blood glucose levels rose to 320 mg/dl or above (30 days post STZ). The rats were then acclimated to the Hargreaves apparatus and thermal nociception was monitored using an infrared heat source directed into the […] surface of the hindpaw, and the time taken for the animal to remove its paw noted to the nearest 0.1 seconds (see Hargreaves et al. 1998 for detailed method). The intensity of the beam source was adjusted such that the mean latency for control animals (non-STZ treated) was approximately 10 seconds. Each animal was tested 8 times and the mean difference score (between mean non-diabetic control latency and mean diabetic latency) are graphically presented in FIGS. 19A and 19B.
Motor and sensory nerve conduction velocity was also measured in STZ-diabetic animals after 4, 8 and 12 weeks of treatment (see De Koning and Gispen 1987 for detailed method). Briefly, stimulating needle electrodes were inserted close to the sciatic and tibial nerves with recording electrodes being placed subcutaneously over the distal foot muscles, in anesthetized rats.

`O=C(O)CCC(CCS)C(=O)O` (stereo not shown) [Compound 1, 2-(2-sulfanylethyl)pentanedioic acid] was tested, and the EC50 (cortical cell cultures) was 2 nM, the “acetic acid (0.6%) induced writhing vs. vehicle control” value [1] was “significantly attenuated” and the “withdrawal latencies vs. diabetic vehicle-treated rats” value (BB/W diabetic rats) was “longer withdrawal latencies”. For the same compound, the “motor and sensory nerve conduction velocities vs. diabetic controls” value (STZ-diabetic animals) was “increased”.

Source: patent publication US20030083374A1, “NAALADase inhibitors useful as pharmaceutical compounds and compositions” (priority 1998, published 2003)
